Numbering of substitutions follows the chain as printed.
How the values were obtained:
[1] = test system: soybeans expressing GAT and HRA transgenes; experiment: T1 pre-emergence sulfonamide spray of soybeans expressing GAT and HRA transgenes; type: in vivo, soybean; design: key: 9=no leaf/stem discoloration; 7=minor leaf/stem discoloration; 5=worse leaf/stem discoloration; 3=severely discolored plant or dying plant; 1=dead plant; conditions: 70 gms a.i./hectare, 10 days post spray, all HRA and GAT events
Description: T1 seed generated from experiments as described in Example 17, were planted in pots of Tama Silt loam in the greenhouse. Pots were immediately sprayed with a pre-emergence application of chlorimuron, rimsulfuron or tribenuron at a rate of 70 gms a.i./hectare. Germinating plants were evaluated 10 days post spray application based on plant discoloration scores described in Example 17. All HRA and GAT events survived all pre-emergence spray applications with a rating of 9 (uninjured).

[2] = test system: soybeans expressing GAT and HRA transgenes; experiment: T1 post-emergence sulfonamide spray of soybeans expressing GAT and HRA transgenes; type: in vivo, soybean; conditions: GAT (SEQ ID NO: 824)/SAMS promoter-HRA events
Description: T1 seed generated from experiments as described in Example 17 were germinated in RediEarth^R 360 medium in the greenhouse. Plants were sprayed at the V2-V3 stage (14 days after potting) with thifensulfuron, chlorimuron, rimsulfuron or tribenuron (70, 70, 35, 35 gm a.i./hectare, respectively). Plants were evaluated 10 days post application based on plant discoloration scores described in Example 17.
Events having a plant discoloration rating 7 or 8 after thifensulfuron spray were sprayed with either a 2× or 4× application of glyphosate after 10 days as per methods described in Example 17. Events were evaluated based on discoloration scores described in Example 17. All thifensulfuron tolerant events survived the glyphosate spray with score of 7 or 8 (results not shown).

[3] = biological target: T1, Bacillus licheniformis strain B6 glyphosate-N-acetyltransferase (GAT), native, SEQ ID NO:7 (Bacillus paralicheniformis, UniProt A0AAW6KBE1); experiment: Apparent KM and kcat of purified GAT (Example 2); type: biochemical; conditions: read-out: KM for Acetyl CoA; apparent; 5 mM glyphosate, 5 mM morpholine pH 7.7, 50% methanol; MS detection
T1 construct: untagged
Description: Lysis of the cells was effected by the addition of 1 ml of the following buffer to 0.2 g of cells: 25 mM HEPES, pH 7.3, 100 mM KCl and 10% methanol (HKM) plus 0.1 mM EDTA, 1 mM DTT, 1 mg/ml chicken egg lysozyme, and a protease inhibitor cocktail obtained from Sigma and used according to the manufacturer's recommendations. After 20 minutes incubation at room temperature (e.g., 22-25° C.), lysis was completed with brief sonication. The lysate was centrifuged and the supernatant was desalted by passage through Sephadex G25 equilibrated with HKM. Partial purification was obtained by affinity chromatography on CoA Agarose (Sigma). The column was equilibrated with HKM and the clarified extract was allowed to pass through under hydrostatic pressure.
Purification to homogeneity was obtained by gel filtration of the partially purified protein through Superdex 75 (Pharmacia).
Initial reaction rates were determined using mass spectrometric detection of N-acetyl glyphosate. Five μl were repeatedly injected into the instrument and reaction rates were obtained by plotting reaction time vs area of the integrated peak (FIG. 6).

[4] = test system: native or low activity GAT enzymes (glyphosate-N-acetyltransferase); experiment: Kinetics typical of native or low activity GAT enzymes (Example 4); type: biochemical; conditions: read-out: KM for acetyl CoA
[5] = Kinetics of GAT variants modified next to the initiating methionine; type: biochemical
Text: A second way to increase plant expression of microbial genes is to increase the G+C content near the initiating methionine residue. Naturally-occurring coding sequences in plants tend to contain two or three G and/or C residues immediately downstream of the ATG initiation codon (Joshi et al. (1997) Plant Mol. Biol. 35:993-1001). Introducing into the gat coding sequence one or two CG-rich codons immediately downstream of the ATG intitiation codon may create a more plant-like coding sequence and thus may enhance its expression in plants.

tobacco plants = experiment: Herbicide spray tests of GAT expressing tobacco plants; type: in vivo, Nicotiana tabacum
Description: Tobacco shoots generated as described in EXAMPLE 9 were excised from the explants and transferred to basal root induction (BRI) medium composed of half-strength Murashige and Skoog (MS) medium, pH 5.7, with 1.5% sucrose, 0.3% Gelrite, 0-200 uM glyphosate and 400 ug/ml Timentin. Rooted plants and axillary shoots were clonally propagated by cutting the stem and transferring it to fresh BRI medium until the desired number of clones was obtained. Rooted plants were carefully removed from the solid medium. Prior to placing the plants into small pots of soil, the roots were washed to remove any remaining Gelrite. A protective plastic cover was kept over the plants for at least one week until the plants were well established.
To determine if GAT expressing tobacco plants could tolerate simulated field rate sprays of glyphosate, clonal lines of several events per GAT variant were tested. A typical test was set up as follows: One clone from each event was sprayed with 1 ml of solution containing the isopropylamine salt of glyphosate (Sigma P5671) and 0.125% Triton X-100, pH 6.8 such that the amount of active ingredient sprayed was equivalent to that present in commercial glyphosate products. For example, to achieve 32 oz/acre (1×) of herbicide containing 40% active ingredient (“ai”), 2.4 ul of 40% ai formulation was diluted into 1 ml water and sprayed on a plant in a 4-inch square pot (16 in^2). A mock application (0×) with surfactant only was also included. In some cases a second spray was applied 1-4 weeks later. Plants were kept in controlled growth rooms at 25° C. and 70% humidity with 16 hr light.
Seed-grown wild type plants were also sprayed. […] All 0× plants were healthy, including the non-GAT control plants. Three weeks later all of the surviving plants were sprayed with an 8× dose.

[6] = Transfer of the propionyl group from propionyl CoA to glyphosate, DTNB detection; type: biochemical; conditions: 1 mM propionyl CoA, 5 mM glyphosate or no glyphosate, 30 minutes
Description: The ability of GAT variants (B6 (SEQ ID NO:7), 0—6D10 (SEQ ID NO:448), 17-15H3 (SEQ ID NO:601), and 20-8H12c (SEQ ID NO:817)) to transfer the propionyl group from propionyl CoA to glyphosate was tested in reaction mixtures containing 5 mM glyphosate or no glyphosate. Propionyl CoA was present at 1 mM. After 30 minutes the reactions were terminated and the presence of free […] was determined by the addition of DTNB.

maize plants = experiment: Effect of temperature variation on glyphosate tolerance of T1 maize expressing GAT transgenes; type: in vivo; conditions: cool/cold, warm and hot conditions, 0×, 4×, 6×, 8× glyphosate at V2, scored 5 and 14 days
Description: Maize plants expressing GAT variant transgenes 10—4F2 (SEQ ID NO:203), 17-15H3 (SEQ ID NO:549), and 18-28D9b (SEQ ID NO:814) were produced using the methods described in Example 13. The effect of temperature on glyphosate tolerance was evaluated in T1 plants. The T1 plants were grown in cool/cold (day 14° C., night 8° C.), warm (day 28° C., night 20° C.), and hot (day 37° C., night 20° C.) conditions. T1 plants were sprayed at V2 with four different glyphosate spray treatments (0×, 4×, 6×, and 8×). Plants were scored at 5 and 14 days after treatment for leaf discoloration and plant height comparisons as described in Example 13.

[7] = 35 gm a.i./ha post-emergence at V2-V3, 10 days after treatment
[8] = 70 gm a.i./ha post-emergence at V2-V3, 10 days after treatment

CCS(=O)(=O)c1cccnc1S(=O)(=O)NC(=O)Nc1nc(OC)cc(OC)n1 [Rimsulfuron]
plant discoloration rating [1]: 9
Average Resistance scores [2, 7]: 2.21

COc1cc(Cl)nc(NC(=O)NS(=O)(=O)c2ccccc2C(=O)O)n1 [Chlorimuron]
plant discoloration rating [1]: 9
Average Resistance scores [2, 8]: 7.75

COc1nc(C)nc(NC(=O)NS(=O)(=O)c2ccsc2C(=O)O)n1 [Thifensulfuron]
Average Resistance scores [2, 8]: 7.81

CC(=O)SCCNC(=O)CCNC(=O)[C@H](O)C(C)(C)COP(=O)(O)OP(=O)(O)OC[C@H]1O[C@@H](n2cnc3c(N)ncnc32)[C@H](O)[C@@H]1OP(=O)(O)O [acetyl CoA]
Km [3]: 2 µM
Km [4]: < 25 µM

COc1nc(C)nc(N(C)C(=O)NS(=O)(=O)c2ccccc2C(=O)O)n1 [Tribenuron]
plant discoloration rating [1]: 9
Average Resistance scores [2, 7]: 3.83

B1: 22-15B4 M1MAA: 22-15B4 with two alanines inserted between Met1 and Ile2, SEQ ID NO:948 (protein)
chain: MAAIEVKPINAEDTYDLRHRVLRPNQPIEACMFDSDLMRSAFHLGGFYGGKLISVASFHQAEHTELQGQKQYQLRGVATLEGYREQKAGSSLVKHAEEILRKRGVDLLWCNARTSASGYYKKLGFSEQGEVFDTPPVGPHILMYKRIT
modifications: 22-15B4 M1MAA
kinetics compared to the unmodified enzyme [5]: reduced kcat

B2: 0—6D10: evolved GAT; gene SEQ ID NO:196, enzyme SEQ ID NO:448 (protein)
chain: MLEVKPINAEDTYELRHKILRPNQPLEVCMYETDLLRGAFHLGGFYRGKLISIASFHQAEHSDLQGQKQYQLRGMATLEGYRDQKAGSSLIRHAEQILRKRGADMLWCNARTSASGYYKKLGFSEQGEVFETPPVGPHILMYKRLT
modifications: 0_6D10
outcome two weeks after glyphosate spray (tobacco plants; 0.5, 2 or 4× glyphosate (1× = 32 oz/acre of 40% ai), clonally propagated events, average of 5 leaves): survived the spraying procedure without signs of glyphosate damage
outcome after second spray with an 8× dose (tobacco plants; 8× glyphosate three weeks later): survived
glyphosate-dependent hydrolysis of propionyl CoA [6]: showed glyphosate-dependent hydrolysis of propionyl CoA

B3: 10—4F2: evolved GAT; enzyme SEQ ID NO:454, transgene printed as SEQ ID NO:203 (protein)
chain: B2 chain with K18R, L26I, V28A, Y31F, T33S, D63E, D83E, Q96E, V129I
modifications: 10_4F2
effect of growth temperature on glyphosate tolerance (maize plants): not adversely effected

B4: 18-28D9b: GAT variant transgene, SEQ ID NO:814 (nucleic acid)
DNA: ATGATAGAGGTGAAACCGATTAACGCAGAGGATACCTATGAACTAAGGCATAGAATACTCAGACCAAACCAGCCGATAGAAGCGTGTATGTTTGAAAGCGATTTACTTCGTGGTGCATTTCACTTAGGCGGCTTTTACAGGGGCAAACTGATTTCCATAGCTTCATTCCACCAGGCCGAGCACTCGGAACTCCAAGGCCAGAAACAGTACCAGCTCCGAGGTATGGCTACCTTGGAAGGTTATCGTGAGCAGAAAGCGGGATCAACTCTAGTTAAACACGCTGAAGAAATCCTTCGTAAGAGGGGGGCGGACATGCTTTGGTGTAATGCGCGGACATCCGCCTCAGGCTACTACAAAAAGTTAGGCTTCAGCGAGCAGGGAGAGATATTTGACACGCCGCCAGTAGGACCTCACATCCTGATGTATAAAAGGATCACATAA
modifications: Synthetic nucleic acid sequence; CDS (1)...(441); 18-28D9b
effect of growth temperature on glyphosate tolerance (maize plants): not adversely effected

B5: 22-15B4 M1MA: 22-15B4 with one alanine inserted between Met1 and Ile2, SEQ ID NO:946 (protein)
chain: MAIEVKPINAEDTYDLRHRVLRPNQPIEACMFDSDLMRSAFHLGGFYGGKLISVASFHQAEHTELQGQKQYQLRGVATLEGYREQKAGSSLVKHAEEILRKRGVDLLWCNARTSASGYYKKLGFSEQGEVFDTPPVGPHILMYKRIT
modifications: 22-15B4 M1MA
kinetics compared to the unmodified enzyme [5]: essentially unaltered kinetics

B6: 20-8H12c: GAT variant, SEQ ID NO:817 (protein)
chain: MIEVKPINAEDTYELRHRVLRPNQPIEACIFESDLMRGAFHLGGFYGGRLISVASFHQAEHSELQGQKQYQLRGMATLEGYREQKAGSSLVKHAEEILRKRGADLLWCNARTSASGYYKKLGFSEQGEVFDTPPVGPHILMYKRIT
modifications: 20-8H12c
glyphosate-dependent hydrolysis of propionyl CoA [6]: showed glyphosate-dependent hydrolysis of propionyl CoA
